# pIC50: −log10 of the molar value.
# How the values were obtained:
# human CRTH2 [1] = target: T1, human CRTH2 (Homo sapiens, UniProt Q9Y5Y4); assay: Calcium Flux Assay Using Fluorometric Imaging Plate Reader (FLIPR); assay type: cell-based; set-up: expressed in transfected cells; host or cells: CHO-K1 (previously transfected with G-alpha 16); conditions: CHO-K1 cells transfected with G-alpha 16 and human CRTH2 receptor; inhibition of ligand (DK-PGD2) induced Ca2+ flux
# T1 sequence (Q9Y5Y4 1-395): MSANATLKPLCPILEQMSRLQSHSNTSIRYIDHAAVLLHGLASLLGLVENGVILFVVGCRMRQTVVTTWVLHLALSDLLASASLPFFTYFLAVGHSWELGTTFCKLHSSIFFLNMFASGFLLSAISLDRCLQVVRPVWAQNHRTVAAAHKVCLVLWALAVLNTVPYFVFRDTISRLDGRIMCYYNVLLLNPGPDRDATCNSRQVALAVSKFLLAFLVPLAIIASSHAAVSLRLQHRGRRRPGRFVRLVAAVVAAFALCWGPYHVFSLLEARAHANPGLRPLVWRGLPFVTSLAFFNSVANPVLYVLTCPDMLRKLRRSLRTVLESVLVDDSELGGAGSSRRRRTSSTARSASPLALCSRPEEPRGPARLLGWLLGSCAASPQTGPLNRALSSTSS
# Procedure: Calcium Flux Assay Using Fluorometric Imaging Plate Reader Cell Culture Conditions:
# CHO-K1 cells previously transfected with G-alpha 16 were subsequently transfected with the human CRTH2 receptor and the neomycin resistance gene. Following selection in 800 μg/mL G418 (geneticin), individual clones were assayed for their receptor expression based on staining with an anti human CRTH2 IgG, followed by assaying for their response to 13,14-dihydro-15-keto Prostaglandin D2 (DK-PDG2) (ligand) in the Ca^2+Flux assay. Positive clones were then cloned by limiting dilution cloning. The transfected cells were cultured in Ham's F-12 medium supplemented with 10% fetal bovine serum, 2 mM glutamine, 100 U/mL penicillin/100 μg/mL streptomycin, 200 μg/mL hygromycin B, and 800 μg/mL G418 (geneticin). Cells were harvested with trypsin-EDTA (trypsin-ethylenediaminetetraacetic acid) and counted using ViaCount® reagent (from Guava Technologies, Inc. which contains two DNA-binding dyes that enable the reagent user to distinguish between viable and non-viable cells). The cell suspension volume was adjusted to 2.5×10^5 cells/mL with complete growth media. Aliquots of 50 μL were dispensed into BD Falcon™ 384 well black/clear microplates (from BD Biosciences, a division of Becton, Dickinson and Company) and the microplates were placed in a 37° C. CO2 incubator overnight. The following day, the microplates were used in the assay.
# Loading Buffer containing dye (from the FLIPR® Calcium 3 Assay Kit from Molecular Devices, a division of MDS Analytical Technologies and MDS Inc.) was prepared by dissolving the contents of one bottle into 200 mL Hank's Balanced Salt Solution containing 20 mM HEPES (4-(2-hydroxyethyl)-1-piperazineethanesulfonic acid) and 2.5 mM probenecid. Growth media was removed from the cell plates and 25 μL of Hank's Balanced Salt Solution (HBSS) containing 20 mM HEPES, 0.05% BSA and 2.5 mM probenecid was added to each well followed by 25 μL of diluted dye using a Multidrop dispenser. The plates were then incubated for 1 hour at 37° C.
# During the incubation, test compound plates were prepared by adding 90 μL of HBSS/20 mM HEPES/0.005% BSA buffer to the 2 μL of serial diluted compounds. To prepare serial diluted compounds, 20 mM stocks of compounds were dissolved in 100% DMSO. The compound dilution plate was set up as follows: well #1 received 5 μL of compound plus 10 μL of DMSO. Wells 2-10 received 10 μL of DMSO. 5 μL was mixed and transferred from well #1 into well #2. 1:3 serial dilutions were continued out 10 steps. […]
# After incubation, both the cell and “assay plate” plates were brought to the fluorometric imaging plate reader (FLIPR®) and 20 μL of the diluted compounds were transferred to the cell plates by the FLIPR®. […] During the assay, fluorescence readings were taken simultaneously from all 384 wells of the cell plate every 1.5 seconds. Five readings were taken to establish a stable baseline, then 20 μL of sample was rapidly (30 μL/sec) and simultaneously added to each well of the cell plate. The fluorescence was continuously monitored before, during and after sample addition for a total elapsed time of 100 seconds. Responses (increase in peak fluorescence) in each well following agonist addition were determined. The initial fluorescence reading from each well, prior to ligand stimulation, was used as a zero baseline value for the data from that well. The responses were expressed as % inhibition of the buffer control. […]
# human CRTH2 [2] = target: T1, human CRTH2; assay: Human CRTH2 Receptor Binding Assay (whole cell, [3H]ramatroban); set-up: expressed in transfected cells; host or cells: CHO-K1; conditions: whole CHO-K1 cells stably expressing human CRTH2 and G-alpha16; 20 nM [3H]ramatroban; 1 hour, room temperature
# Text: A whole cell receptor binding assay using [^3H]ramatroban as the competing radioactive ligand was employed to evaluate the compound binding activity to human CRTH2. The radioactive ligand [^3H]ramatroban was synthesized according to Sugimoto et. al. (Eur. J. Pharmacol. 524, 30-37, 2005) to a specific activity of 42 Ci/mmol.
# A cell line stably expressing human CRTH2 was established by transfecting CHO-K1 cells with two mammalian expression vectors that harbored human CRTH2 and G-alpha16 cDNAs, respectively, using FuGene® 6 transfection reagent (from Roche). Stable clones expressing CRTH2 were selected by staining each clone with BM16 (BD Pharmingen™ from BD Biosciences, a division of Becton, Dickinson and Company), which is a rat monoclonal antibody to human CRTH2. The cells were maintained as monolayer cultures in Ham's F-12 medium containing 10% fetal bovine serum, 100 units/mL penicillin, 100 μg/mL streptomycin, 2 mM glutamine, 0.5 mg/mL G418 (geneticin) for CRTH2, and 0.2 mg/mL hygromycin-B (for G-alpha 16). For whole cell receptor binding assay, the monolayer cells were rinsed once with PBS (phosphate buffered saline), dissociated using ethylenediaminetetraacetate (Versene™ EDTA from Lonza Inc.), and suspended in PBS containing 10 mM MgCl2 and 0.06% BSA (bovine serum albumin) at 1.5×10^6 cells/mL.
# The binding reactions (0.2 mL) were performed in 96-well plates at room temperature in PBS containing 1.5×10^5 cells, 10 mM MgCl2, 0.06% BSA, 20 nM [^3H]ramatroban, and test compound at various concentrations. After 1 hour of binding reactions, the cells were harvested on GF™/B filter microplates (microtiter plates with embedded glass fiber from PerkinElmer, Inc.) and washed 5 times with PBS using a Filtermate™ Harvester (a cell harvester that harvests and washes cells from microplates from PerkinElmer, Inc.). The radioactivities bound to the cells were determined using a microplate scintillation counter (TopCount® NXT, from PerkinElmer, Inc.) after adding 50 μL of Microscint™ 20 scintillation fluid (from PerkinElmer, Inc.) to each well of the filter plates. The radioactivity from non-specific binding was determined by replacing compound with 10 μM of 15(R)-15-methyl PGD2 (from Cayman Chemical Company) in the reaction mixtures. The radioactivity bound to the cells in the absence of compound (total binding) was determined by replacing compound with 0.25% of DMSO (dimethyl sulfoxide) in the reaction mixture. Specific binding data were obtained by subtracting the radioactivity of non-specific binding from each binding data.
# The IC50 value is defined as the concentration of the tested compound that is required for 50% inhibition of total specific binding. In order to calculate the IC50 value, the percent inhibition data were determined for 7 concentrations for each compound. The percent inhibition for a compound at each concentration was calculated according to the following formula, [1-(specific binding in the presence of compound)/(total specific binding)]×100. The IC50 value was then obtained by fitting the percent inhibition data to a sigmoidal dose-response (4 parameter logistic) model in the XLfit® software Excel add-in program [from ID Business Solutions Ltd., model 205, where F(x)=(A+(B−A)/(1+((C/x)^D)))].
pIC50 (human CRTH2 [1]),pIC50 (human CRTH2 [2]),Structure (SMILES)
< 5.30,7.69,"CCS(=O)(=O)N1CCC(Oc2cc(CC(=O)O)cc3ccc(F)cc23)CC1 [Example 4-2, [4-(1-Ethanesulfonyl-piperidin-4-yloxy)-6-fluoro-naphthalen-2-yl]-acetic acid]"
< 5.30,6.34,"COc1ccccc1N1CCN(C(=O)c2c(C)c(CC(=O)O)cc3ccc(F)cc23)CC1 [Example 2-8, {6-Fluoro-4-[4-(2-methoxy-phenyl)-piperazine-1-carbonyl]-3-methyl-naphthalen-2-yl}-acetic acid]"
< 5.30,6.79,"CC(=O)N1CCC(Oc2cc(CC(=O)O)cc3ccc(F)cc23)CC1 [Example 5-1, [4-(1-Acetyl-piperidin-4-yloxy)-6-fluoro-naphthalen-2-yl]-acetic acid]"
< 5.30,6.35,"CCc1ccccc1N1CCN(C(=O)c2c(C)c(CC(=O)O)cc3ccc(F)cc23)CC1 [Example 2-10, {4-[4-(2-Ethyl-phenyl)-piperazine-1-carbonyl]-6-fluoro-3-methyl-naphthalen-2-yl}-acetic acid]"
,7.81,"Cc1c(CC(=O)O)cc2ccc(F)cc2c1C(=O)N1CCN(S(=O)(=O)C(C)C)CC1 [Example 1-4, {6-Fluoro-3-methyl-4-[4-(propane-2-sulfonyl)-piperazine-1-carbonyl]-naphthalen-2-yl}-acetic acid]"
,7.87,"O=C(O)Cc1cc(OC2CCN(C(=O)c3ccccc3)CC2)c2cc(F)ccc2c1 [Example 5-6, [4-(1-Benzoyl-piperidin-4-yloxy)-6-fluoro-naphthalen-2-yl]-acetic acid]"
,7.27,"O=C(O)Cc1cc(OC2CCN(C(=O)C3CCCC3)CC2)c2cc(F)ccc2c1 [Example 5-5, [4-(1-Cyclopentanecarbonyl-piperidin-4-yloxy)-6-fluoro-naphthalen-2-yl]-acetic acid]"
,8.49,"O=C(O)Cc1cc(OC2CCN(S(=O)(=O)c3ccccc3)CC2)c2cc(F)ccc2c1 [Example 4-6, [4-(1-Benzenesulfonyl-piperidin-4-yloxy)-6-fluoro-naphthalen-2-yl]-acetic acid]"
,8.40,"O=C(O)Cc1cc(OC2CCN(C(=O)NCCc3ccccc3)CC2)c2cc(F)ccc2c1 [Example 6-5, [6-Fluoro-4-(1-phenethylcarbamoyl-piperidin-4-yloxy)-naphthalen-2-yl]-acetic acid]"
,7.24,"Cc1c(CC(=O)O)cc2ccc(F)cc2c1C(=O)N1CCN(c2cccc(C(F)(F)F)c2)CC1 [Example 2-7, {6-Fluoro-3-methyl-4-[4-(3-trifluoromethyl-phenyl)-piperazine-1-carbonyl]-naphthalen-2-yl}-acetic acid]"
,8.54,"O=C(O)Cc1cc(OC2CCN(C(=O)Cc3ccccc3)CC2)c2cc(F)ccc2c1 [Example 5-10, [6-Fluoro-4-(1-phenylacetyl-piperidin-4-yloxy)-naphthalen-2-yl]-acetic acid]"
< 5.30,6.60,"Cc1c(CC(=O)O)cc2ccc(F)cc2c1C(=O)N1CCN(c2ccccc2C(F)(F)F)CC1 [Example 2-15, {6-Fluoro-3-methyl-4-[4-(2-trifluoromethyl-phenyl)-piperazine-1-carbonyl]-naphthalen-2-yl}-acetic acid]"
,7.17,"O=C(O)Cc1cc(OC2CCN(C(=O)C3CC3)CC2)c2cc(F)ccc2c1 [Example 5-4, [4-(1-Cyclopropanecarbonyl-piperidin-4-yloxy)-6-fluoro-naphthalen-2-yl]-acetic acid]"
,6.82,"Cc1c(CC(=O)O)cc2ccc(F)cc2c1C(=O)N1CCN(c2ccccc2F)CC1 [Example 2-3, {6-Fluoro-4-[4-(2-fluoro-phenyl)-piperazine-1-carbonyl]-3-methyl-naphthalen-2-yl}-acetic acid]"
